Experiments:
[1] = Viscera-motor response (VMR) to colorectal distension (CRD), rat colonic zymosan-treated hyperalgesia model; type: in vivo, rats
Method: Example 3 utilized a rat colonic zymosan-treated hyperalgesia model (i.e. a model of post-inflammatory visceral pain sensitivity). Zymosan was injected into the colon during the neonatal period producing short-term inflammation and subsequent long-term colonic hypersensitivity.
In this experiment, weanling rats were fed a control diet or control diet plus LGG and/or PDX/GOS for 40 days. The VMR to CRD was quantified using electromyographic (EMG) recordings from the external oblique muscle of the abdomen as an objective measure of visceral sensation in all groups. A stimulus-response function to graded CRD was constructed to test the colonic intensity dependent increase in EMG activity change of external oblique muscle.

[2] = system: neurotransmitters (biogenic monoamines) in the brain; assay: Neurotransmitter levels in the brain by HPLC, neonatal zymosan visceral hyperalgesia rats; type: in vivo; details: brain stem, vs non-LGG treated rats, LGG P21-P60, FIG. 6A
From the text: This example describes the effect of LGG on the neurotransmitter levels in the brain. Briefly, chronic visceral hyperalgesia was induced in rats by administration of intracolonic zymosan (or normal saline for control) for three consecutive days during postnatal day 14-16 (P14-P16). LGG treatment was initiated after weaning (P21) and continued until P60. The levels of neurotransmitters and amino acids were quantified in the frontal cortex, sub-cortex, brain stem and cerebellum.
The quantitative assessment of neurotransmitters was conducted using HPLC-based separation followed by fluorescent and/or electrochemical detection. Briefly, brain sections were homogenized, using a tissue dismembrator, in 100-750 ul of 0.1 M TCA, which contains 10-2 M sodium acetate, 10^-4 M EDTA, 5 ng/ml isoproterenol (as internal standard) and 10.5% methanol (pH 3.8). Samples were spun in a microcentrifuge at 10000 g for 20 minutes. Samples of the supernatant were then analyzed for neurotransmitters (biogenic monoamines). Biogenic amines were determined by a specific HPLC assay utilizing an Antec Decade II (oxidation: 0.4) (3 mm GC WE, HYREF) electrochemical detector operated at 33° C. Twenty I samples of the supernatant were injected using a Water 2707 autosampler onto a Phenomenex Kintex (2.6u, 100 Å) C18 HPLC column (100×4.60 mm). Biogenic amines were eluted with a mobile phase consisting of 89.5% 0.1 M TCA, 10-2 M sodium acetate, 10^-4 M EDTA and 10.5% methanol (pH 3.8). Solvent was delivered at 0.6 ml/min using a Waters 515 HPLC pump. Using this HPLC solvent the following biogenic amines eluted in the following order: noradrenaline, Adrenaline, DOPAC, Dopamine, 5-HIAA, HVA, 5-HT, and 3-MT. HPLC control and data acquisition were managed by Empower software.

Substance: Lactobacillus rhamnosus GG [LGG]
- visceral hypersensitivity ([1]; neonatal colonic zymosan model): attenuated
- sensitivity to pain (EMG recordings) ([1]; p<0.05 vs Control+Zymosan, n=10, fed 40 days): significantly attenuated
- viscera-motor response (VMR) to CRD ([1]; zymosan-treated rats, FIG. 7): significantly attenuated
- level of 5-hydroxyindoleacetic acid (5-HIAA) [2]: significant increase
- level of noradrenaline (NA) [2]: significant increase
- level of serotonin (5-HT) [2]: significant increase

Reference: patent US20150290260A1, “METHODS OF USE FOR PROBIOTICS AND PREBIOTICS” (Mead Johnson Nutrition Company, priority 2014, published 2015)
